This data set can be described thus: activity coefficient (dimensionless); of the first substance listed, at infinite dilution; xn = mol fraction of the nth substance listed. As to conditions: 101.33 kPa, Liquid, Chromatography, x1 = 0.

Here are results for 23 molecules from the NIST ThermoML archive (doi:10.1016/j.jct.2018.05.017).

Numbers after ± are expanded uncertainties.

Consider `Cc1ccccc1C` [1,2-dimethylbenzene] + CCCCCCn1cc[n+](C)c1C.F[B-](F)(F)F, for which the activity coefficient (313.15 K) was found to be 2.38 ± 0.25; the activity coefficient (323.15 K) amounted to 2.57 ± 0.27; the activity coefficient (333.15 K) worked out at 2.76 ± 0.29; the activity coefficient (343.15 K) was 2.97 ± 0.31; the activity coefficient (353.15 K) was determined as 3.16 ± 0.33.

Take `Cc1cccc(C)c1` [1,3-dimethylbenzene] + CCCCCCn1cc[n+](C)c1C.F[B-](F)(F)F: the activity coefficient runs as follows: (313.15 K) 3.37 ± 0.35; (323.15 K) 3.46 ± 0.36; (333.15 K) 3.59 ± 0.38; (343.15 K) 3.67 ± 0.39; (353.15 K) 3.79 ± 0.4.

As for `Cc1ccc(C)cc1` [1,4-dimethylbenzene] + CCCCCCn1cc[n+](C)c1C.F[B-](F)(F)F, the activity coefficient is 2.84 ± 0.3 (313.15 K); 3.05 ± 0.32 (323.15 K); 3.29 ± 0.35 (333.15 K); 3.51 ± 0.37 (343.15 K); 3.76 ± 0.4 (353.15 K).

For `C1COCCO1` [1,4-dioxane] + CCCCCCn1cc[n+](C)c1C.F[B-](F)(F)F, the activity coefficient (313.15 K) came to 1.08 ± 0.11; the activity coefficient (323.15 K) was found to be 1.09 ± 0.11; the activity coefficient (333.15 K) worked out at 1.1 ± 0.11; the activity coefficient (343.15 K) was 1.12 ± 0.11; the activity coefficient (353.15 K) was found to be 1.13 ± 0.12.

With `CC(C)CC(C)(C)C` [2,2,4-trimethylpentane] + CCCCCCn1cc[n+](C)c1C.F[B-](F)(F)F, the activity coefficient turned out to be 59.2 ± 6.2 (313.15 K); 59 ± 6.2 (323.15 K); 58.2 ± 6.1 (333.15 K); 57.5 ± 6.1 (343.15 K); 57.2 ± 6 (353.15 K).

Consider `CC(C)CO` [2-methyl-1-propanol] + CCCCCCn1cc[n+](C)c1C.F[B-](F)(F)F, for which the activity coefficient stood at 2.28 ± 0.24 (313.15 K); 2.15 ± 0.23 (323.15 K); 2.01 ± 0.21 (333.15 K); 1.9 ± 0.2 (343.15 K); 1.85 ± 0.19 (353.15 K).

Take `CC(C)=O` [acetone] + CCCCCCn1cc[n+](C)c1C.F[B-](F)(F)F: the activity coefficient (313.15 K) was found to be 0.84 ± 0.09; the activity coefficient (323.15 K) was found to be 0.87 ± 0.09; the activity coefficient (333.15 K) was 0.9 ± 0.09; the activity coefficient (343.15 K) worked out at 0.93 ± 0.09; the activity coefficient (353.15 K) amounted to 0.96 ± 0.1.

As to `CC#N` [acetonitrile] + CCCCCCn1cc[n+](C)c1C.F[B-](F)(F)F, the activity coefficient was 0.52 ± 0.06 (313.15 K); 0.54 ± 0.06 (323.15 K); 0.56 ± 0.06 (333.15 K); 0.57 ± 0.06 (343.15 K); 0.58 ± 0.06 (353.15 K).

Regarding `c1ccccc1` [benzene] + CCCCCCn1cc[n+](C)c1C.F[B-](F)(F)F, the activity coefficient (313.15 K) is 1.54 ± 0.16; the activity coefficient (323.15 K) amounted to 1.55 ± 0.16; the activity coefficient (333.15 K) is 1.57 ± 0.16; the activity coefficient (343.15 K) amounted to 1.58 ± 0.16; the activity coefficient (353.15 K) stood at 1.59 ± 0.17.

With `CCCCO` [butan-1-ol] + CCCCCCn1cc[n+](C)c1C.F[B-](F)(F)F, the activity coefficient (313.15 K) stood at 2.77 ± 0.29; the activity coefficient (323.15 K) was found to be 2.67 ± 0.28; the activity coefficient (333.15 K) was 2.5 ± 0.3; the activity coefficient (343.15 K) worked out at 2.37 ± 0.25; the activity coefficient (353.15 K) was determined as 2.27 ± 0.24.

For `CCC(C)O` (stereo not given) [butan-2-ol] + CCCCCCn1cc[n+](C)c1C.F[B-](F)(F)F, the activity coefficient reads like this: (313.15 K) 2.65 ± 0.28; (323.15 K) 2.56 ± 0.27; (333.15 K) 2.48 ± 0.26; (343.15 K) 2.38 ± 0.25; (353.15 K) 2.28 ± 0.24.

For `C1CCCCC1` [cyclohexane] + CCCCCCn1cc[n+](C)c1C.F[B-](F)(F)F, the activity coefficient (313.15 K) is 19.8 ± 2.1; the activity coefficient (323.15 K) came to 19.6 ± 2.1; the activity coefficient (333.15 K) was found to be 19.5 ± 2; the activity coefficient (343.15 K) worked out at 19.1 ± 2; the activity coefficient (353.15 K) turned out to be 18.9 ± 2.

For `C1=CCCCC1` [cyclohexene] + CCCCCCn1cc[n+](C)c1C.F[B-](F)(F)F, the activity coefficient (313.15 K) turned out to be 9.89 ± 1; the activity coefficient (323.15 K) amounted to 9.67 ± 1; the activity coefficient (333.15 K) came to 9.51 ± 1; the activity coefficient (343.15 K) came out at 9.36 ± 0.98; the activity coefficient (353.15 K) was 9.08 ± 0.95.

As to `CCCCCCCCCC` [decane] + CCCCCCn1cc[n+](C)c1C.F[B-](F)(F)F, the activity coefficient is, setting by setting: (313.15 K) 125 ± 13; (323.15 K) 121 ± 13; (333.15 K) 112 ± 12; (343.15 K) 102 ± 11; (353.15 K) 92 ± 9.7.

Turning to `ClCCl` [dichloromethane] + CCCCCCn1cc[n+](C)c1C.F[B-](F)(F)F, the activity coefficient came to 0.7 ± 0.07 (313.15 K); 0.74 ± 0.08 (323.15 K); 0.8 ± 0.08 (333.15 K); 0.87 ± 0.09 (343.15 K); 0.93 ± 0.09 (353.15 K).

For `CCO` [ethanol] + CCCCCCn1cc[n+](C)c1C.F[B-](F)(F)F, the activity coefficient came to 1.4 ± 0.14 (313.15 K); 1.31 ± 0.13 (323.15 K); 1.23 ± 0.13 (333.15 K); 1.16 ± 0.12 (343.15 K); 1.09 ± 0.11 (353.15 K).

As to `CCOC(C)=O` [ethyl acetate] + CCCCCCn1cc[n+](C)c1C.F[B-](F)(F)F, the activity coefficient (313.15 K) is 2.01 ± 0.21; the activity coefficient (323.15 K) amounted to 2.12 ± 0.22; the activity coefficient (333.15 K) turned out to be 2.16 ± 0.23; the activity coefficient (343.15 K) was 2.21 ± 0.23; the activity coefficient (353.15 K) stood at 2.26 ± 0.24.

Consider `CCc1ccccc1` [ethylbenzene] + CCCCCCn1cc[n+](C)c1C.F[B-](F)(F)F, for which the activity coefficient (313.15 K) was determined as 3.81 ± 0.4; the activity coefficient (323.15 K) is 3.84 ± 0.4; the activity coefficient (333.15 K) worked out at 3.88 ± 0.41; the activity coefficient (343.15 K) amounted to 3.93 ± 0.41; the activity coefficient (353.15 K) turned out to be 3.95 ± 0.42.

On to `CCCCCCC` [heptane] + CCCCCCn1cc[n+](C)c1C.F[B-](F)(F)F, for which the activity coefficient was 47.9 ± 5 (313.15 K); 45.4 ± 4.8 (323.15 K); 42.8 ± 4.5 (333.15 K); 40.2 ± 4.2 (343.15 K); 37.4 ± 3.9 (353.15 K).

With `CCCCCC` [hexane] + CCCCCCn1cc[n+](C)c1C.F[B-](F)(F)F, the activity coefficient worked out at 31 ± 3.3 (313.15 K); 29.5 ± 3.1 (323.15 K); 27.9 ± 2.9 (333.15 K); 26.3 ± 2.8 (343.15 K); 25 ± 2.6 (353.15 K).

`CO` [methanol] + CCCCCCn1cc[n+](C)c1C.F[B-](F)(F)F: the activity coefficient came to 0.96 ± 0.1 (313.15 K); 0.91 ± 0.09 (323.15 K); 0.86 ± 0.09 (333.15 K); 0.82 ± 0.08 (343.15 K); 0.78 ± 0.08 (353.15 K).

For `CC1CCCCC1` [methylcyclohexane] + CCCCCCn1cc[n+](C)c1C.F[B-](F)(F)F, the activity coefficient reads like this: (313.15 K) 25.4 ± 2.7; (323.15 K) 25.4 ± 2.7; (333.15 K) 24.9 ± 2.6; (343.15 K) 24.5 ± 2.6; (353.15 K) 23.9 ± 2.5.

Regarding `CCCCCCCCC` [nonane] + CCCCCCn1cc[n+](C)c1C.F[B-](F)(F)F, the activity coefficient runs as follows: (313.15 K) 89.5 ± 9.4; (323.15 K) 83.5 ± 8.8; (333.15 K) 77.8 ± 8.2; (343.15 K) 72.6 ± 7.7; (353.15 K) 67.4 ± 7.1.
